In PubChem BioAssay (NCI):
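Step 1: Grow cells in 96-well plates. Step 2: Expose to compound for 48 hours at 5 concentrations. Step 3: Interpolate endpoints linearly; if unreached, use highest concentration. TGI marks complete inhibition of growth.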

Assays:
Assay in all cases: NCI tumour cell line growth inhibition, 48 h
LXFL 529 NSCLC = test system: LXFL 529 NSCLC
M19-MEL melanoma = test system: M19-MEL melanoma
SNB-78 CNS = test system: SNB-78 CNS
SN12K1 renal = test system: SN12K1 renal
P388/ADR leukemia = test system: P388/ADR leukemia
P388 leukemia = test system: P388 leukemia
DLD-1 colon = test system: DLD-1 colon
XF 498 CNS = test system: XF 498 CNS

Which TGI (LXFL 529 NSCLC) does the source give for `CCCc1[nH]c(SCCCCCCCCSc2nc(-c3ccc(F)cc3)c(CCC)[nH]2)nc1-c1ccc(F)cc1` here?
Its TGI is greater than 100 µM.

And the TGI (M19-MEL melanoma)?
The TGI was greater than 100 µM.

What about the TGI (SNB-78 CNS) of the same compound?
Its TGI is greater than 100 µM.

With `CCS(=O)(=O)Nc1ccc(Nc2c3ccccc3nc3ccccc23)c(OC)c1` as the compound, how does the TGI (SN12K1 renal) read?
Its TGI is 4.11 µM.

What about the TGI (P388/ADR leukemia) of the same compound?
The TGI was 1.53 µM.

And the TGI (P388 leukemia)?
Its TGI is 0.214 µM.

And the TGI (DLD-1 colon)?
Its TGI is 17.3 µM.

What about the TGI (M19-MEL melanoma) of the same compound?
The TGI was 16.6 µM.

And the TGI (XF 498 CNS)?
Its TGI is 2.01 µM.

What about the TGI (SNB-78 CNS) of the same compound?
Its TGI is 18.4 µM.

How did the TGI (DLD-1 colon) turn out when `COc1cc(C2C(C(=O)O)=C(CO)Oc3cc4c(cc32)OCO4)cc(OC)c1O` (stereo not drawn) was run?
Its TGI is greater than 100 µM.

And the TGI (SNB-78 CNS)?
The TGI was greater than 100 µM.

For `ONc1ncnc2nc[nH]c12`, which TGI (LXFL 529 NSCLC) is on record?
The TGI was greater than 100 µM.

And the TGI (DLD-1 colon)?
The TGI was greater than 100 µM.

And the TGI (M19-MEL melanoma)?
Its TGI is greater than 100 µM.

And the TGI (XF 498 CNS)?
Its TGI is greater than 100 µM.

For `Cc1nc(N)nc(N)c1-c1ccc(Cl)c(Cl)c1`, which TGI (LXFL 529 NSCLC) is on record?
Its TGI is greater than 100 µM.

What about the TGI (DLD-1 colon) of the same compound?
The TGI was 55 µM.

And the TGI (M19-MEL melanoma)?
The TGI was greater than 100 µM.

And the TGI (XF 498 CNS)?
The TGI was greater than 100 µM.

What about the TGI (SNB-78 CNS) of the same compound?
Its TGI is greater than 100 µM.

Which results are given for `Cc1cccc2nc3c(C(=O)NCCN(C)C)cccc3cc12`?
TGI (SN12K1 renal): 5.26 µM; TGI (P388/ADR leukemia): 11.8 µM; TGI (P388 leukemia): 11.7 µM; TGI (DLD-1 colon): 7.78 µM; TGI (M19-MEL melanoma): 4.42 µM; TGI (XF 498 CNS): 3.24 µM; TGI (SNB-78 CNS): 12.6 µM
